Where a SMILES comes first, the peptide text is derived from it.
Columns and labels:
AcrB [1] = molecular target: T1, AcrB (Escherichia coli, UniProt P31224); assay: differential HDX-MS on purified AcrB WT; type: binding
T1 construct: full-length AcrB with C-terminal 6xHis tag, in DDM micelles

AcrB [2] = molecular target: T2, AcrB (Escherichia coli, UniProt P31224, G288D); type: binding
T2 construct: full-length AcrB with C-terminal 6xHis tag, in DDM micelles
T2 sequence (P31224 whole entry G288D): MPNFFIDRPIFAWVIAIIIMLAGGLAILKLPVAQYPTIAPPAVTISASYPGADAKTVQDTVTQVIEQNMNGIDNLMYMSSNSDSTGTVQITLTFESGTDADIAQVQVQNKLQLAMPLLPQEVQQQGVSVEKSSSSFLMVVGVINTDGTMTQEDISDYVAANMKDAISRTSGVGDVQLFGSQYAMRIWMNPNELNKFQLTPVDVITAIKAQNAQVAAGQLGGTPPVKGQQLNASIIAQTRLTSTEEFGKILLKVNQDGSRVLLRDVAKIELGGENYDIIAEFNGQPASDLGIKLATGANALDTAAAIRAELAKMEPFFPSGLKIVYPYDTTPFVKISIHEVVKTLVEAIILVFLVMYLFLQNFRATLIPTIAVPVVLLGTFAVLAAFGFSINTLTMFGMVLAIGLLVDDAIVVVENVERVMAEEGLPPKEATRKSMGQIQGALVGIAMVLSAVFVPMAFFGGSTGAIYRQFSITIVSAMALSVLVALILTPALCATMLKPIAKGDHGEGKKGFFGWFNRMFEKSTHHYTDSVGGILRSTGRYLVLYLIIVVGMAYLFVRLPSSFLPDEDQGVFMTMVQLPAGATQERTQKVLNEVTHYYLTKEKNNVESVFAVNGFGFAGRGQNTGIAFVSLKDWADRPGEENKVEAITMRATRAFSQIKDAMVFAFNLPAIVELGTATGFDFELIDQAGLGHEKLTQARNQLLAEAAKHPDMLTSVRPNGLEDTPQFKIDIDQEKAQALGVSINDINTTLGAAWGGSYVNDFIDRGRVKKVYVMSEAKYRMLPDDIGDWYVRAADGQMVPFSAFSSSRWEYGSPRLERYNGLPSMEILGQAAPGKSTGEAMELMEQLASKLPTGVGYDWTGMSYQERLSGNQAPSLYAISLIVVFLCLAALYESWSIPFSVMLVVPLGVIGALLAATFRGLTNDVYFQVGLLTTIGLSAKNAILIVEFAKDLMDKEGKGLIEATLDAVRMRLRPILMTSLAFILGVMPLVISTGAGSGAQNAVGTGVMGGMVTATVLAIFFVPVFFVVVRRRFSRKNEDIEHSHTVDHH

T1 sequence (P31224 whole entry): as the sequence (P31224 whole entry G288D) above, with D288G counted along it

Question: What does the source list for `NC(N)=NCCC[C@H](NC(=O)[C@@H](N)Cc1ccccc1)C(=O)Nc1ccc2ccccc2c1` [PAβN, phenylalanine-arginine-β-naphthylamide] (HELM PEPTIDE1{F.R.[c1ccc2cc(N[*:1])ccc2c1]}$$$$V2.0)?
Answer: differential HDX-MS on purified AcrB WT (AcrB [1]): inhibitor binding led to HDX reduction throughout extensive parts of the PC1/PC2 cleft of the drug-binding pockets; differential HDX-MS on purified AcrB G288D (AcrB [2]): Upon substrate binding, PAβN caused reduced HDX within the PC1/PC2 regions for AcrB^G288D
